Assay results taken from patent publication US20180369118A1, “METHODS FOR SPORE REMOVAL” (3M INNOVATIVE PROPERTIES COMPANY, priority 2015, published 2018).

System: C.sporogenes spores ATCC 3584
Experiment: In-vitro removal of spores from Vitro-Skin (finger bag collection method)
Details: Example 4
Text: The in-vitro method was designed to evaluate the removal of microbes from skin using a synthetic skin material from the cosmetic industry, Vitro-skin from IMS inc, Portland MeThis method enables rapid screening of formulations for their propensity to promote release of microbes from skin and may be predictive of in-vivo activity.
The following materials were utilized. C.sporogenes spores ATCC 3584˜1.0×10̂8 CFU/ml; Triton-X 100 sampling buffer (pH 7.4) Filter Sterilized: 0.4 g KH2PO4, 10.1 g Na2HPO4, 1 g Triton-X 100, and 1 L dH2O; D/E neutralizing broth; Fingers from disposable polyethylene gloves (VWR 32915-268); Sterile dH2O (WFI quality water); 3M AC Petrifilm; and 5 ml Falcon tubes; 1.5 ml EPI Centrifuge tubes; Petri Dishes; Vitro-Skin IMS Inc.; and double-sided tape.
The method included the following. Punched-out specified number of Vitro-Skin samples using the ¾″ punch. Attached punch-out Vitro-Skin samples to a Petri-dish or any other sterile flat surface using double-sided tape. Contaminated the Vitro-Skin samples accordingly with 10μl of spores/spore prep (˜1×10̂6 CFU/Sample). Used the pipette tip to spread spores over the surface and used a new pipette tip for each sample. Allowed the samples to dry (˜40 minutes). […]
For best statistical data each test solution was repeated 3 times. […] Counted plates and analyzed data.

In the case of `N=C(NCCCCCCNC(=N)NC(=N)Nc1ccc(Cl)cc1)NC(=N)Nc1ccc(Cl)cc1.O=C(O)[C@H](O)[C@@H](O)[C@H](O)[C@H](O)CO.O=C(O)[C@H](O)[C@@H](O)[C@H](O)[C@H](O)CO` [CHG, Chlorhexidine gluconate], the “spore removal (in words)” value is reported as “poor spore removal”.
